# Measured values taken from US20190254299A1, “METHODS OF HANDLING AVOCADOS AND SYSTEM” (AGROFRESH INC., priority 2012, published 2019).
# Key:
# Format in all cases: in vivo
# avocados [1] = assay: Skin color on day 8, Example 3; parameters: key: 1: full green; 2: green with traces of brown; 3: half green and half brown; 4: brown with traces of green; 5: purple-black; conditions: 1000 ppb MCP
# Procedure: Avocado skin color was rated using the following scale: • 1=full green • 2=green with traces of brown • 3=half green and half brown • 4=brown with traces of green • 5=purple-black
# Avocados were harvested in Mexico and shipped to Pennsylvania, USA. 48 fruits were tested. When the fruits reached pulp firmness of 71 N (16 lbf), half of the fruits were exposed to atmosphere having 1000 ppb of MCP at 21.1° C. for 12 hours and half were not. Immediately after treatment, fruits were placed in MAP bags. The number of fruits per bag was either 1, 2, 3, 4, or 10. Two MCP-treated fruits were left out of any MAP, and two fruits not exposed to MCP were also left out of any MAP. All fruits were then stored at 21° C. (70° F.). On the eighth day after exposure to atmosphere containing MCP, fruits were tested with the following results. The results shown are the averages for all the fruits tested in each category.
# Avocados were harvested and shipped as in Example 2. Treatment was performed when pulp thinness reached 98 N (22 lbf). 50 fruits were tested. Otherwise the treatment and handling was the same as in Example 2. Results (average of all fruits tested in each category) were as follows: […]
# avocados [2] = assay: Pulp firmness, ethylene-treated fruit, Example 6; conditions: for Pulp Firmness Difference from the Control Sample: ethylene-treated, 900 ppb MCP, control Poly bag, 0 MCP
# Procedure: As used herein, the “pulp firmness” of an avocado is measured using a penetrometer (Fruit Test™ FT40 penetrometer, from Wagner Instruments) having a plunger diameter of 8 mm Performing the test for pulp firmness destroys the avocado that is tested. When avocados are said herein to be treated in a certain way (e.g., harvested, shipped, exposed to a cyclopropene compound, etc.) when they have a certain specified pulp firmness, it is meant that, out of a group of avocados that have been harvested and treated as uniformly as reasonably possible, a sample of a relatively small number of avocados is removed and tested for pulp firmness. The large group of avocados is considered to have the pulp firmness that is the average value of the tests performed on the relatively small sample.
# Pulp firmness was evaluated by peeling open 4 cm^2 of the avocado's peel using a fruit peeler provided with the penetrometer. The penetrometer was mounted on a manual stand with a lever to deliver unifoim force throughout the test. The avocado was placed with the peeled surface beneath the penetrometer tip with probe diameter of 8 mm, and the force required to punch through the pulp was measured. Each fruit was tested in 3 places.
# Avocados were harvested, handled, and tested as in Example 1. Fruits were placed into MAP bags or else into “Poly bags” (plastic bags having more than 10 holes per bag, with each hole larger than 1 cm in diameter).
# Three fruits (approximately 1.8 kg of fruit) were placed in each bag. After placement into bags, fruit was exposed to ethylene (200 ppm for 24 hours at 22° C.). Then, the fruit was exposed to 1-MCP (900 ppb for 15 hours at 22° C.).
# avocados [3] = assay: RipeLock applications, Example 7; conditions: FIG. 5, firmness
# Excerpt: Avocados are harvested, handled, and tested as in previous examples. Control samples have no bag and no SmartFresh (1-methylcyclopropene or 1-MCP) application. SmartFresh samples have no bags hut with 600 ppb SmartFresh (1-methylcyclopropene or 1-MCP) application. MAP samples use the 31b MAP bags but no SmartFresh (1-methylcyclopropene or 1-MCP) application. RipeLock 300 samples have the 31b MAP bags with 300 ppb SmartFresh (1-methylcyclopropene or 1-MCP) application. RipeLock 600 samples have the 31b MAP bags with 600 ppb SmartFresh (1-methylcyclopropene or 1-MCP) application. RipeLock 900 samples have the 31b MAP bags with 900 ppb SmartFresh (1-methylcyclopropene or 1-MCP) application. Average fruit in each sample is about 3.81b.
# Oxygen (O2) concentrations of samples tested are shown in FIG. 1, and carbon dioxide (CO2) concentrations of samples tested are shown in FIG. 2.
# avocados [4] = assay: Additional RipeLock applications, Example 8; conditions: seven days at 22° C.
# Excerpt: Avocados are harvested, handled, and tested as in previous examples. Control samples have no bag and no SmartFresh (1-methylcyclopropene or 1-MCP) application. SmartFresh samples have no bags but with 500 ppb SmartFresh (1-methylcyclopropene or 1-MCP) application. MAP samples use the 31b MAP bags but no SmartFresh (1-methylcyclopropene or 1-MCP) application. RipeLock samples have the 3 lb MAP bags with various concentrations of SmartFresh (1-methylcyclopropene or 1-MCP) applications, including 10 ppb, 50 ppb, 100 ppb, 500 ppb, 1500 ppb, 3000 ppb, and 4500 ppb. Average fruit in each sample is about 3.8 lb. Ethylene is treated after packing at 200 ppm for twenty-four hours. Evaluations are performed seven days at 22° C. after SmartFresh (1-methylcyclopropene or 1-MCP) applications.
# Data of pulp firmness of avocado tested are shown in FIG. 6 (with ethylene) and FIG. 7 (without ethylene).
smiles,measurement,setting,value
"CC1=CC1 [MCP, 1-methylcyclopropene]","Skin Color on Day 8, Color Rating",avocados [1]; MAP bag,4.2
same,"Skin Color on Day 8, Color Rating",avocados [1]; no bag,5
same,effect of combining MAP bag and 1-MCP on pulp firmness,"avocados [2]; MAP bags and 900 ppb 1-MCP, days 1-4",synergistic benefit to pulp firmness
same,pulp firmness compared with other treatments,"avocados [2]; MAP bags and 900 ppb of 1-MCP, days 1-4",best pulp firmness
same,Pulp Firmness Difference from the Control Sample,"avocados [2]; MAP bag, day 0",13.8 Ns
same,Pulp Firmness Difference from the Control Sample,"avocados [2]; MAP bag, day 1",30.4 Ns
same,Pulp Firmness Difference from the Control Sample,"avocados [2]; MAP bag, day 2",14.6 Ns
same,Pulp Firmness Difference from the Control Sample,"avocados [2]; MAP bag, day 3",21.4 Ns
same,Pulp Firmness Difference from the Control Sample,"avocados [2]; MAP bag, day 4",14.8 Ns
same,Pulp Firmness Difference from the Control Sample,"avocados [2]; Poly bag, day 0",0.1 Ns
same,Pulp Firmness Difference from the Control Sample,"avocados [2]; Poly bag, day 1",1.1 Ns
same,Pulp Firmness Difference from the Control Sample,"avocados [2]; Poly bag, day 2",0.6 Ns
same,Pulp Firmness Difference from the Control Sample,"avocados [2]; Poly bag, day 3",1.4 Ns
same,Pulp Firmness Difference from the Control Sample,"avocados [2]; Poly bag, day 4",0.1 Ns
same,combined effect of MAP bags and SmartFresh application,avocados [3],synergistic effect
same,firmness and skin color by application rate,avocados [4]; rate of 1500 ppb in MAP bags,best result for both firmness and skin color
same,combined effect of MAP bags and SmartFresh applications,avocados [4]; rates equal or higher than 500 ppb,synergistic effect
